Test results taken from US20110046160A1, “Novel Class of Spiro Piperidines for the Treatment of Neurodegenerative Diseases” (Pfizer, Inc., priority 2008, published 2011).

Target: T1, soluble human BACE (Homo sapiens, UniProt P56817)
T1 construct: cells secreting human recombinant soluble BACE; made in house; concentrated conditioned medium, crude or purified
Experiment: Inhibition of BACE: beta-secretase cleavage of synthetic biotinylated APP substrate, ELISA readout
Assay type: biochemical
Settings: 3 μM substrate, 0.05M sodium acetate (pH 4.5), 2% DMSO, 1 hour at 37° C., ELISA absorbance at 450 nm
Experimental: The substrate and test compounds are added to 384 well polypropylene plates. The reaction is initiated by the addition of soluble BACE enzyme to a final volume of 12.5 μL per well. […] Concentrated conditioned media from cells secreting human recombinant soluble BACE was titrated to provide a source of BACE enzyme. The cell media can be used as either a crude BACE prep or BACE can be purified using any number of techniques, including immobilized BACE inhibitor purification columns. The assay mixture is incubated for 1 hour at 37° C., and the reaction is quenched by the addition of an equal volume of 0.1M Tris, pH 8. Half of the quenched mix is incubated on clear streptavidin coated 384 well polystyrene plates for 1 hour. […] The readout, following assay development with TMB substrate and quenching with 0.09M sulfuric acid, is absorbance at 450 nm.

T1 sequence (P56817 46-457 limits assumed): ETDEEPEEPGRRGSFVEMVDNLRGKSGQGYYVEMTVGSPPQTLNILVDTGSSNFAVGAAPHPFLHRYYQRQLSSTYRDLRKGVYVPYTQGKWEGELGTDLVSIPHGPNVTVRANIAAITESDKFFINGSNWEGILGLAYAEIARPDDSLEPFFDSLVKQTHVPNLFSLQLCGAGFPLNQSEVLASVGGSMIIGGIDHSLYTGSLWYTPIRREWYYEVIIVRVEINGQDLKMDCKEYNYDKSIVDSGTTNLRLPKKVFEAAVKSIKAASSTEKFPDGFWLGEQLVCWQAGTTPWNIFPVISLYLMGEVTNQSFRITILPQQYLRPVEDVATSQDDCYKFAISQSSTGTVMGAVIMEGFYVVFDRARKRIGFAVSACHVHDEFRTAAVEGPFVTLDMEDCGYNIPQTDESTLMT

| SMILES | IC50 [µM] |
| --- | --- |
| Cc1ccncc1-c1cccc(CN2CC[C@]3(CNS(=O)(=O)N3c3cccc(F)c3)C[C@@H]2C)c1 [Example 17, (5R,7S)-1-(3-fluorophenyl)-7-methyl-8-[3-(4-methylpyridin-3-yl)benzyl]-2-thia-1,3,8-triazaspiro[4.5]decane 2,2-dioxide] | 1.51 |
| CC(C)Oc1cccc(CN2CC[C@]3(CNS(=O)(=O)N3c3cccc(F)c3)C[C@@H]2C)n1 [Example 83, (5R,7S)-1-(3-fluorophenyl)-8-[(6-isopropoxypyridin-2-yl)methyl]-7-methyl-2-thia-1,3,8-triazaspiro[4.5]decane 2,2-dioxide] | 102 |
